Among the data in ChEMBL document CHEMBL1135967, “Potent inhibitors of farnesyltransferase and geranylgeranyltransferase-I” (Bioorg Med Chem Lett, 2002) are IC50 and EC50 values, retold here.

Each structure is given as a SMILES string.

Assay [1] addresses Protein farnesyltransferase (Bos taurus, UniProt P29702+P49355). The experiment in a line: Inhibition of Farnesyltransferase catalyzed incorporation of [3H]-FPP into recombinant Ras-CVIM. The assay is classed as functional.
Assay [2] concerns the target T1, Geranylgeranyl transferase type I (Homo sapiens, UniProt P49354+P53609). The assay can be described thus: Inhibition of the human Geranylgeranyl transferase type I catalyzed incorporation of [3H]GGPP into a biotinylated peptide corresponding to the C-terminus of human K-Ras. The assay is classed as functional.
Assay [3] deals with Protein farnesyltransferase. The assay can be described thus: Displacement of radiolabeled FTI from Farnesyltransferase in v-Ha-ras-transformed Rat1 cells. The assay is classed as cell-based.
In assay [4] the target is Protein farnesyltransferase (Homo sapiens, UniProt P49354+P49356). The experiment in a line: Inhibition of HDJ2 farnesylation in PSN-1 cells. The assay is classed as functional, cell-based.
Assay [5] deals with T1, Geranylgeranyl transferase type I. The experiment in a line: Inhibition of geranylgeranylation of Rap1a in PSN-1 cells. The assay is classed as functional, cell-based.

Regarding `COc1cc(C(F)(F)F)ccc1-c1ccc(Cn2cncc2CN2CCN(c3cccc(Cl)c3)C(=O)C2)cc1`, the IC50 in assay [1] is 392 nM; in assay [2], 1860 nM.

Regarding `O=C1CN(Cc2cncn2Cc2ccc(-c3ccccc3)cc2)CCN1c1cccc(Cl)c1`, the concentration for half-maximal inhibition (IC50) in assay [3] worked out at 1600 nM; in assay [1], 12 nM; in assay [2], 1390 nM.

As to `N#Cc1ccc2cc1Oc1ccc3cccc(c3c1)N1CCN(CCc3cncn3C2)CC1=O`, the IC50 in assay [3] came out at 0.19 nM; in assay [1], 0.25 nM; in assay [2], 16 nM.

Consider `O=C1CN(Cc2cncn2Cc2ccc(-c3ccc(C(F)(F)F)cc3)nc2)CCN1c1cccc(Cl)c1`, for which the half-maximal inhibitory concentration (IC50) in assay [3] is 159 nM; in assay [1], 14 nM; in assay [2], 509 nM.

For `O=C1CN(Cc2cncn2Cc2ccc(-c3cccc(Cl)c3)cc2)CCN1c1cccc(Cl)c1`, the IC50 in assay [1] came to 17 nM; in assay [2], 8450 nM.

As to `O=C1CN(Cc2cncn2Cc2ccc(-c3ccc(Cl)cc3)cc2)CCN1c1cccc(Cl)c1`, the half-inhibitory concentration (IC50) was 193 nM in assay [3], 8.7 nM in assay [1] and 210 nM in assay [2].

On to `O=C1CN(Cc2cncn2Cc2ccc(-c3ccc(OC(F)(F)F)cc3)nc2)CCN1c1cccc(Cl)c1`, for which the IC50 amounted to 52 nM in assay [1] and 560 nM in assay [2].

Take `O=C1CN(Cc2cncn2Cc2ccc(-c3ccc(Cl)cc3)nc2)CCN1c1cccc(Cl)c1`: the IC50 came out at 250 nM in assay [3], 19 nM in assay [1] and 2300 nM in assay [2].

For `O=C1CN2CCc3cncn3Cc3ccc(-c4ccc(C(F)(F)F)cc4)c(c3)Oc3ccc4cccc(c4c3)N1CC2`, the IC50 in assay [3] turned out to be 1.1 nM; in assay [1], 2.1 nM; in assay [2], 15.6 nM.

For `O=C1CN2CCc3cncn3Cc3ccc(Br)c(c3)Oc3ccc4cccc(c4c3)N1CC2`, the values for the IC50 in assay [3], in assay [1] and in assay [2] were 2 nM, 1.2 nM and 161 nM, respectively.

As for `COc1cc(Cn2cncc2CCN2CCN(c3cccc(Cl)c3)C(=O)C2)ccc1-c1ccc(C(F)(F)F)cc1`, the EC50 in assay [4] is 28 nM; in assay [5], 3400 nM. The IC50 came to 1.2 nM in assay [3], 0.17 nM in assay [1] and 151 nM in assay [2].

As to `O=C1CN(Cc2cncn2Cc2ccc(-c3ccc(F)cc3)cc2)CCN1c1cccc(Cl)c1`, the half-inhibitory concentration (IC50) in assay [3] was 662 nM; in assay [1] it was 15 nM; in assay [2] it was 1340 nM.

`O=C1CN2CCc3cncn3Cc3ccc(CCCCC(F)(F)F)c(c3)Oc3ccc4cccc(c4c3)N1CC2`: the half-maximal effective concentration (EC50) in assay [4] is 6.9 nM; in assay [5] it was 800 nM. Also, the IC50 amounted to 0.48 nM in assay [3], 3.1 nM in assay [1] and 60 nM in assay [2].

Regarding `O=C1CN(Cc2cncn2Cc2ccc(-c3ccc(C(F)(F)F)cc3)cc2)CCN1c1cccc(Cl)c1`, the IC50 was 29 nM in assay [3] and 140 nM in assay [2].

Consider `COc1cc(Cn2cncc2CN2CCN(c3cccc(Cl)c3)C(=O)C2)ccc1-c1ccc(C(F)(F)F)cc1`, for which the results for the concentration for half-maximal inhibition (IC50) in assay [3], in assay [1] and in assay [2] were 12 nM, 1.6 nM and 70 nM, respectively.

With `O=C1CN2CCc3cncn3Cc3cccc(c3)Oc3ccc4cccc(c4c3)N1CC2`, the IC50 in assay [1] was determined as 8 nM; in assay [2] it was 509 nM.

As for `O=C1CN(Cc2cncn2Cc2ccc(-c3cc(C(F)(F)F)cc(C(F)(F)F)c3)cc2)CCN1c1cccc(Cl)c1`, the values for the IC50 in assay [1] and in assay [2] were 3500 nM and 1870 nM, respectively.

With `O=C1CN2CCc3cncn3Cc3ccc(C#CCCC(F)(F)F)c(c3)Oc3ccc4cccc(c4c3)N1CC2`, the half-maximal inhibitory concentration (IC50) in assay [3] is 0.81 nM; in assay [1], 6.1 nM; in assay [2], 4.8 nM.

Consider `O=C1CN(Cc2cncn2Cc2ccc(-c3cccc(C(F)(F)F)c3)cc2)CCN1c1cccc(Cl)c1`, for which the IC50 in assay [3] turned out to be 662 nM; in assay [1], 410 nM; in assay [2], 2680 nM.

For the compound `O=C1CN(Cc2cncn2Cc2ccc(-c3cc(Cl)cc(Cl)c3)cc2)CCN1c1cccc(Cl)c1`, the concentration for half-maximal inhibition (IC50) came out at 600 nM in assay [3], 35 nM in assay [1] and 3030 nM in assay [2].

For `CCCCc1ccc2cc1Oc1ccc3cccc(c3c1)N1CCN(CCc3cncn3C2)CC1=O`, the half-inhibitory concentration (IC50) in assay [1] amounted to 10.3 nM; in assay [2], 2480 nM.

Regarding `N#Cc1ccc(Cn2cncc2CN2CCN(c3cccc(Cl)c3)C(=O)C2)cc1` [L-778123 FREE BASE], the half-maximal inhibitory concentration (IC50) in assay [1] was 2 nM.
